What all share (format): in vivo
Data set [1] has as its system green peach aphid (Myzus persicae). Description: Green peach aphid, pepper plant leaf dip test. The note with it: 300 ppm; pepper plants dipped; after 5 days. An excerpt: II.11 Green Peach Aphid (myzus persicae)
(§1) The active compounds were formulated in 50:50 acetone:water (vol/vol) and 100 ppm Kinetic™ surfactant.
Pepper plants in the 2nd leaf-pair stage (variety “California Wonder”) were infested with approximately 40 laboratory-reared aphids by placing infested leaf sections on top of the test plants. The leaf sections were removed after 24 hr. The leaves of the intact plants were dipped into gradient solutions of the test compound and allowed to dry. Test plants were maintained under fluorescent light (24 hour photoperiod) at about 25° C. and about 20-40% relative humidity. Aphid mortality on the treated plants, relative to mortality on check plants, was determined after 5 days.

The next data set concerns adult female rats. Description: Acute oral rat toxicity study, single oral gavage, 14 days observation. The note with it: three rats per study, single oral gavage dose 100 mg/kg bw. The method, then: Some representatives of the compounds according to the present invention have been tested in acute oral rat toxicity studies.
In these studies, test substances were administered to adult female rats by oral gavage for one time. The compounds were administered as a 1% b.w. suspension or the compound in a 1% aqueous carboxymethyl cellulose solution. In each study three rats were used. The animals were treated with a single dose of 100 mg/kg bw. […] After the 14 day observation period, the animals were sacrificed, dissected, and examined for gross pathological lesions.

The subject of data set [2] is silverleaf whitefly (bemisia argentifolii). Kind of data set: Silverleaf whitefly, cotton cotyledon dip test. The note with it: 300 ppm; cotyledons dipped; 3 days after treatment. The method, then:
II.9 Silverleaf Whitefly (bemisia argentifolii)
as §1
Selected cotton plants were grown to the cotyledon state (one plant per pot). The cotyledons were dipped into the test solution to provide complete coverage of the foliage and placed in a well-vented area to dry. Each pot with treated seedling was placed in a plastic cup and 10 to 12 whitefly adults (approximately 3-5 day old) were introduced. The insects were collected using an aspirator and a Tygon® tubing connected to a barrier pipette tip. The tip containing the collected insects was then gently inserted into the soil containing the treated plant allowing insects to crawl out of the tip to reach the foliage for feeding. The cups were covered with a re-usable screened lid. Test plants were maintained in the holding room at about 25° C. and about 20-40% relative humidity for 3 days avoiding direct exposure to the fluorescent light (24 hour photoperiod) to prevent trapping of heat inside the cup. Mortality was assessed 3 days after treatment of the plants.

Data set [3] relates to rice green leafhopper (nephotettix virescens). Description: Rice green leafhopper on sprayed rice seedlings. The following applies: 300 ppm, adults, after 72 hours. Here is the method: II.12 Rice Green Leafhopper (nephotettix virescens)
Rice seedlings were cleaned and washed 24 hours before spraying. The active compounds were formulated in 50:50 acetone:water (vol/vol), and 0.1% (vol/vol) surfactant (EL 620) was added. Potted rice seedlings were sprayed with 5 ml test solution, air dried, placed in cages and inoculated with 10 adults. Treated rice plants were kept at about 28-29° C. and relative humidity of about 50-60%. Percent mortality was recorded after 72 hours.

On to `O=C1c2cc(-c3ccc(F)cc3F)ccc2S(=O)(=O)N1Cc1ccncc1` [I.20], for which the “mortality in comparison with untreated controls” value (“mortality in comparison” below) in data set [1] is given as “over 75%”.
For `Cc1nccc(CN2C(=O)c3cc(-c4ccc(C(F)(F)F)cc4Cl)ccc3S2(=O)=O)c1C` [I.34], in the data set with adult female rats, the “Lethality (cumulative) 0-5 h after treatment” value is 0, the “Lethality (cumulative) 1 d after treatment” value is 0, the “Lethality (cumulative) 2 d after treatment” value is 0 and the “Lethality (cumulative) 7 d after treatment” value is given as 0. The “Lethality (cumulative) 14 d after treatment” value in the data set with adult female rats came to 1.
On to `Cc1nccc(CN2C(=O)c3cc(-c4ccc(Cl)cc4C(F)(F)F)ccc3S2(=O)=O)c1C` [I.35], for which, in the data set with adult female rats, the “Lethality (cumulative) 0-5 h after treatment” value is reported as 0, the “Lethality (cumulative) 1 d after treatment” value is 0, the “Lethality (cumulative) 2 d after treatment” value was found to be 0 and the “Lethality (cumulative) 7 d after treatment” value turned out to be 0. Further, the “Lethality (cumulative) 14 d after treatment” value in the data set with adult female rats amounted to 2.
As for `O=C1c2cc(-c3ccc(F)cc3F)ccc2S(=O)(=O)N1Cc1ccnc2cc(C(F)(F)F)ccc12` [I.28], in data set [2], the “mortality in comparison” value is recorded as “over 75%”.
For the compound `COc1cc(CN2C(=O)c3cc(-c4ccc(F)cc4F)ccc3S2(=O)=O)ccn1` [I.19], in data set [3], the “mortality in comparison” value is reported as “over 75%”.
